According to patent US7125842B2, “Anti-fungal compounds and methods of use” (CanBas Co. Ltd., priority 2003, dated 2006):

How the values were obtained:
[1] = test system: yeast AH109; assay: Growth inhibition of yeast AH109 on YAPD plate; format: cell-based, Saccaromices Cerevisie; details: 1 hr incubation at 30° in liquid YAPD, then 3 days on YAPD agarose plate (FIG. 2)
Procedure: Cell culture Saccaromices Cerevisie AH109 was purchased from CLONTECH (Palo Alto, Calif.). YAPD plates were prepared using YPD agar purchased from CLONTECH and adenine purchased from Sigma-Aldrich Co. The cells were cultured at 30 degree.
Logarithmically growing yeast AH109 in liquid medium (YAPD) was diluted to 1 to 10 with warm liquid YAPD medium with or without CBP501 and/or amphotericin B at the indicated doses. After 1 hr incubation at 30° whole solution was poured onto the YAPD agarose plate. The plate was then incubated 3 days and the samples were phtographed (FIG. 2).

[2] = molecular target: T1, Wee1 (Homo sapiens, UniProt P30291); assay: In vitro phosphorylation inhibition, Wee1 (ELISA); format: biochemical; details: CBP501 0.5, 5, 50 uM, 30° C., compared to cyclin-dependent kinases, PKA and PKC (FIG. 1)
T1 construct: Weel: Human fulllength recombinant with GST fusion, E. Coli; GST; host or cells: E. coli
T1 sequence (P30291 whole entry, the tested form may be a part): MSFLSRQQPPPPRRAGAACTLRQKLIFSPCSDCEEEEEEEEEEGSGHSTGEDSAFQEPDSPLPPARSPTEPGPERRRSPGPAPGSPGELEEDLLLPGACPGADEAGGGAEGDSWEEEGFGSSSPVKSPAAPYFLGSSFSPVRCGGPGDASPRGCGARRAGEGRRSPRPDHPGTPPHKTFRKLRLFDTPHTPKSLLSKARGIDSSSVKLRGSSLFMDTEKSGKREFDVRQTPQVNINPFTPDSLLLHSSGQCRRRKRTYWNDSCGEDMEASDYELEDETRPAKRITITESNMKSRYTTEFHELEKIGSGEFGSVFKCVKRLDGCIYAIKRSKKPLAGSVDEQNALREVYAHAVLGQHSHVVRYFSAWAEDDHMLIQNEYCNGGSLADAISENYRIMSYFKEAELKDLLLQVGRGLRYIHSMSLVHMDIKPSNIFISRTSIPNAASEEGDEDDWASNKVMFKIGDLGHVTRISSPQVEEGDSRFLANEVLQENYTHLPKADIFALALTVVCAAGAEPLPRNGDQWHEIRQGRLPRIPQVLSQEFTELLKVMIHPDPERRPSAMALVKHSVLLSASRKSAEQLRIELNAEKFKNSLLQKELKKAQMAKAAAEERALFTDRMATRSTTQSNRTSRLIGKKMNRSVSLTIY
Procedure: (§1) Source of kinases, measurement method, substrate, first antibody, second antibody, reaction buffer, reaction volume, ATP concentration, and reaction time are as follows. ATM and ATR: Full length recombinant human, 293T cells, enzyme linked immunosorbent assay (ELISA), GST-p53 (aal -99), anti-p53-phosphorylated Serl 5, Horse radish peroxidase (HRP)-labeled anti-rabbit IgG, 1×Mg/Mn kinase buffer (20 mM Hepes-KOH (pH7.5), 1 mM DTT, 80 ug/ml BSA, 10 mM MgCl2, 10 mM MnCl2), 50 ul, 100 uM, and 60 min. Chk1, Chk2 and c-Tak1: Full length recombinant human from SF-9 cells for Chk1, Full length recombinant human from E. Coli for Chk2 and Full length recombinant human from SF-9 cells for c-Tak1, respectively, ELISA, GST-Cdc25C (aa167–267), anti-Cdc25C-phosphorylated Ser216, HRP-labelled anti-mouse IgG, 1×Mg kinase buffer (20 mM Hepes-KOH (pH7.5), 1 mM DTT, 80 ug/ml BSA, 10 mM MgCl2), 50 ul, 50 uM, and 60 min. PLK-1: Human full length GST fusion, E. Coli, ELISA, GST fusion protein Y, Anti-phosphorylated Ser/Thr monoclonal, HRP-labelled anti-mousr IgG, 1×Mg kinase buffer, 30 ul, 50 uM, and 60 min. […]
(§2) All incubations were at 30° C. […] The phosphorylated substrate was detected with either ELISA or RIA as described above. […] The quantity of phosphorylated substrate for each kinase reaction without CBP501 was nominated as 100%.

[3] = molecular target: T2, CHK2 (Homo sapiens, UniProt O96017); assay: In vitro phosphorylation inhibition, CHK2 (ELISA); format: biochemical; details: CBP501 0.5, 5, 50 uM, 30° C., compared to cyclin-dependent kinases, PKA and PKC (FIG. 1)
T2 construct: Full length recombinant human from E. Coli for Chk2; host or cells: E. coli
T2 sequence (O96017 whole entry): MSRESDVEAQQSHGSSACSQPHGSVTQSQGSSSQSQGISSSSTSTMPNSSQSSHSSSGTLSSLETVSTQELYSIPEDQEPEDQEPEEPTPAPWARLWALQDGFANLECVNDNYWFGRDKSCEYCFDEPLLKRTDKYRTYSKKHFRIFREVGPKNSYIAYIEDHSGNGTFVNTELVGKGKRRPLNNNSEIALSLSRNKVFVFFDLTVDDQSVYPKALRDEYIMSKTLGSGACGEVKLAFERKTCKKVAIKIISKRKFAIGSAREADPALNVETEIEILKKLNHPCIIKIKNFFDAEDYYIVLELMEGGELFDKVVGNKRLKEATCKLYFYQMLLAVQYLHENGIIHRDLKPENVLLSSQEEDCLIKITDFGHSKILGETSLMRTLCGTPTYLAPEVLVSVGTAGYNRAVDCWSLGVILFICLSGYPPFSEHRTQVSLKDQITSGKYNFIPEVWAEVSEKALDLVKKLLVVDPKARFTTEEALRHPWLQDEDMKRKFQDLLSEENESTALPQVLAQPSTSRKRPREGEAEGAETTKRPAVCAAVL
Procedure: as §1, §2

[4] = test system: Trichophyton mentagroohytes (ATCC 9533); assay: Minimal growth inhibitory concentration by turbidity, Trichophyton mentagroohytes; format: cell-based; details: Trichophyton mentagroohytes ATCC 9533, potato dextrose broth, 28 degree, turbidity three days after inoculation
Procedure: (§3) Candida albicans was obtained from ATCC (ATCC 10231) and cultured in fluid Sabouraud medium at 37 degree. The turbidity was measured one day after the innoculation and treatment with CBP501 at 0.03, 0.1, 0.3, 1, 3, 10, 30, 100 μg/ml. Candida glabrata was obtained from ATCC (ATCC 36583) and cultured in fluid Sabouraud medium at 28 degree. The turbidity was measured two days after the innoculation and treatment with CBP501 at 0.03, 0.1, 0.3, 1, 3, 10, 30, 100 μg/ml. Cryptococcus neoformans was obtained from ATCC (ATCC 24067) and cultured in fluid Sabouraud medium at 37 degree. The turbidity was measured two days after the innoculation and treatment with CBP501 at 0.03, 0.1, 0.3, 1, 3, 10, 30, 100 μg/ml. Trichophyton mentagroohytes was obtained from ATCC (ATCC 9533) and cultured in potato dextrose broth at 28 degree. The turbidity was measured three days after the innoculation and treatment with CBP501 at 0.03, 0.1, 0.3, 1, 3, 10, 30, 100 μg/ml. Minimal growth inhibitory concentrations were determined as the concentration of minimal CBP501 where the turbidity was not increased (Table 2).

[5] = test system: Candida albicans (ATCC 10231); assay: Minimal growth inhibitory concentration by turbidity, Candida albicans; format: cell-based; details: Candida albicans ATCC 10231, fluid Sabouraud medium, 37 degree, turbidity one day after inoculation
Procedure: as §3

[6] = test system: Candida glabrata (ATCC 36583); assay: Minimal growth inhibitory concentration by turbidity, Candida glabrata; format: cell-based; details: Candida glabrata ATCC 36583, fluid Sabouraud medium, 28 degree, turbidity two days after inoculation
Procedure: as §3

[7] = molecular target: T3, ATM (Homo sapiens, UniProt Q13315); assay: In vitro phosphorylation inhibition, ATM (ELISA); format: biochemical; details: CBP501 0.5, 5, 50 uM, 30° C., compared to cyclin-dependent kinases, PKA and PKC (FIG. 1)
T3 construct: ATM and ATR: Full length recombinant human, 293T cells; host or cells: 293T cells
T3 sequence (Q13315 whole entry): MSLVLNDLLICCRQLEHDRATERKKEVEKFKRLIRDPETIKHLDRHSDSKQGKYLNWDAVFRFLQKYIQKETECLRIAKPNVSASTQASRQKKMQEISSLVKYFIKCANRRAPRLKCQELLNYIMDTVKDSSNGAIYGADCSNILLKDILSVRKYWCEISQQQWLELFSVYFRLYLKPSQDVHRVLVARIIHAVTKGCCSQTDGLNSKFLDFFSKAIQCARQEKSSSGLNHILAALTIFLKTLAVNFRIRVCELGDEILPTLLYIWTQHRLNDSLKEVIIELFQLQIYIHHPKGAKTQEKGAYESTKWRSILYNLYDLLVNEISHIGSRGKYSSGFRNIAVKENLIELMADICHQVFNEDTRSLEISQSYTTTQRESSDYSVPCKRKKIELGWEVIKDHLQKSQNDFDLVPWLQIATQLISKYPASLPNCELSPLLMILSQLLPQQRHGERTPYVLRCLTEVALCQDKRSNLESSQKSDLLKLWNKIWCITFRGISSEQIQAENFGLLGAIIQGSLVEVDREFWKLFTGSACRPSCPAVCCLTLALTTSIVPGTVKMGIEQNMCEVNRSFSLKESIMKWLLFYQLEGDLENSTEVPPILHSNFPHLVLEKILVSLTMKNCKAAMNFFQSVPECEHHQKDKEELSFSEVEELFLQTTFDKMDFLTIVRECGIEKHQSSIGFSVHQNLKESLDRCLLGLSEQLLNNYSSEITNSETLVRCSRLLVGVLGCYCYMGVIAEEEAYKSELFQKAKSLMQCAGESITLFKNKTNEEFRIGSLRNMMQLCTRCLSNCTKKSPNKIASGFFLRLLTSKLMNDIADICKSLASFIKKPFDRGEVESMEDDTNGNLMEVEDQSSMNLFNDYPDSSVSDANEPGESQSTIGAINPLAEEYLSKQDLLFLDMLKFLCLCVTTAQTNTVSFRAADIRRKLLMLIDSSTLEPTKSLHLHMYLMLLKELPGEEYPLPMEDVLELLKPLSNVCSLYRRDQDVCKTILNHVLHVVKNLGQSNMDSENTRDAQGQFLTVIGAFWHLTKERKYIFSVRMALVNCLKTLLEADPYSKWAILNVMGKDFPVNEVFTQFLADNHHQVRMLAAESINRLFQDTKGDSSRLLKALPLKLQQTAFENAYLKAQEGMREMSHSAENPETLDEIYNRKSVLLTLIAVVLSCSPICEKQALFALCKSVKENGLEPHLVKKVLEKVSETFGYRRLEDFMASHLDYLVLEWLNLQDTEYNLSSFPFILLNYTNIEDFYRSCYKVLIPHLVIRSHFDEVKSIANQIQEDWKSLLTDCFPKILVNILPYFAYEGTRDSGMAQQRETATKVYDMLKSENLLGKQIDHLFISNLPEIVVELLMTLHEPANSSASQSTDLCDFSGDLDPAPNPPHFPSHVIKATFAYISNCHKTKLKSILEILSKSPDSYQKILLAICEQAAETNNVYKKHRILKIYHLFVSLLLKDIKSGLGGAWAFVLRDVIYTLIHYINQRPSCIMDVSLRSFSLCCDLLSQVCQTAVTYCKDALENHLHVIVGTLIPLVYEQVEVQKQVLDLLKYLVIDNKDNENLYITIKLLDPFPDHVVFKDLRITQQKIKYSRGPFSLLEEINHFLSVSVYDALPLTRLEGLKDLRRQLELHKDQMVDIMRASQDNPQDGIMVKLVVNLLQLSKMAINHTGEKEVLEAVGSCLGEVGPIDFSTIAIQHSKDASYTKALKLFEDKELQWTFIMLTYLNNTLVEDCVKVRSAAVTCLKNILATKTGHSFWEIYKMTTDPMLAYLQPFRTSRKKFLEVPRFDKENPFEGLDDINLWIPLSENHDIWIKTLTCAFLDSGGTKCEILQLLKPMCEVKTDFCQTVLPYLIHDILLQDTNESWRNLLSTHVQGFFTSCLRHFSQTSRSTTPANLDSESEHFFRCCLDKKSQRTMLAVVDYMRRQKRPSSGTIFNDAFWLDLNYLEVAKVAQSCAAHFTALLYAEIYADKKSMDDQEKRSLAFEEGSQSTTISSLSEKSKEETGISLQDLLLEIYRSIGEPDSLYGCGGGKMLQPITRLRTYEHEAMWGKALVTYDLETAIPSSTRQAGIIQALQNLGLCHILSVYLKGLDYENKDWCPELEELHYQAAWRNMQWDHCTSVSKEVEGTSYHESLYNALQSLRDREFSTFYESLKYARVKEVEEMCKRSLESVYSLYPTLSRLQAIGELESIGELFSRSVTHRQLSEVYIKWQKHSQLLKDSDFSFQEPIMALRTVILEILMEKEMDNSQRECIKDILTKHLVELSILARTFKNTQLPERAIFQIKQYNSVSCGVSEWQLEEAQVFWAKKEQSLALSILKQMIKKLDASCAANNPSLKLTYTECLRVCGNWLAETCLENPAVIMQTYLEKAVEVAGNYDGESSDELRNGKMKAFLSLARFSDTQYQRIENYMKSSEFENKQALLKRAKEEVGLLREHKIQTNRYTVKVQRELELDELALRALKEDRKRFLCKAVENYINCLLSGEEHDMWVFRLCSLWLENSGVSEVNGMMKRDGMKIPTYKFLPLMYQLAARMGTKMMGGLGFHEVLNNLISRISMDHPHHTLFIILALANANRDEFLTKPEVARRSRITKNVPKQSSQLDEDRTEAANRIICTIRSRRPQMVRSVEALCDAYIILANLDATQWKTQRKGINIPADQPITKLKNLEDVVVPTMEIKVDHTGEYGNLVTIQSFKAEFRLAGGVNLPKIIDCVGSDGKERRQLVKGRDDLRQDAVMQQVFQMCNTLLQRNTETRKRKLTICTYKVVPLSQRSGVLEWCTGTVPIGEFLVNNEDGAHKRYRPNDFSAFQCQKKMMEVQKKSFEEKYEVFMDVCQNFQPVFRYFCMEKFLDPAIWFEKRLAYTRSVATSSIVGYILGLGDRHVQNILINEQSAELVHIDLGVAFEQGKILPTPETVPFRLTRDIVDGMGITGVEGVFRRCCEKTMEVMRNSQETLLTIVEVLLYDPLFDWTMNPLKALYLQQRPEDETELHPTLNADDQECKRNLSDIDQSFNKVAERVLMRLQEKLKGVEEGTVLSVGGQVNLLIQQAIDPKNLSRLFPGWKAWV
Procedure: as §1, §2

[8] = test system: Cryptococcus neoformans (ATCC 24067); assay: Minimal growth inhibitory concentration by turbidity, Cryptococcus neoformans; format: cell-based; details: Cryptococcus neoformans ATCC 24067, fluid Sabouraud medium, 37 degree, turbidity two days after inoculation
Procedure: as §3

[9] = molecular target: T4, PLK1 (Homo sapiens, UniProt P53350); assay: In vitro phosphorylation inhibition, PLK1 (ELISA); format: biochemical; details: CBP501 0.5, 5, 50 uM, 30° C., compared to cyclin-dependent kinases, PKA and PKC (FIG. 1)
T4 construct: PLK-1: Human full length GST fusion, E. Coli; GST; host or cells: E. coli
T4 sequence (P53350 whole entry, the tested form may be a part): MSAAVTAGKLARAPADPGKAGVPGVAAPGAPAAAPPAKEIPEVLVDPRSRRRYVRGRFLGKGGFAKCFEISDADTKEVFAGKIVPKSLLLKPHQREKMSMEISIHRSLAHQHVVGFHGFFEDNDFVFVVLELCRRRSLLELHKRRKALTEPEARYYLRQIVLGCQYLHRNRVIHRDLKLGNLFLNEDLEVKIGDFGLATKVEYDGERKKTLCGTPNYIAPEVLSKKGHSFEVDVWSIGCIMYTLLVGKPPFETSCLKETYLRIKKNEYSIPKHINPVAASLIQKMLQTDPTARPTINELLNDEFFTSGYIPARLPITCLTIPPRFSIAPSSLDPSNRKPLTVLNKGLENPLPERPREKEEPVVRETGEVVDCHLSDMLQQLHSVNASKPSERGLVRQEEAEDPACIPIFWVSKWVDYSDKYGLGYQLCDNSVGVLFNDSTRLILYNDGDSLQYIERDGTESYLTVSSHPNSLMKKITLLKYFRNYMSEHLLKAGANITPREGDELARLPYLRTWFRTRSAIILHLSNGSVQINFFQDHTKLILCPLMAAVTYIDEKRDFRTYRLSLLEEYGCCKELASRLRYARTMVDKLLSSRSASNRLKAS
Procedure: as §1, §2

[10] = molecular target: T5, ATR (Homo sapiens, UniProt Q13535); assay: In vitro phosphorylation inhibition, ATR (ELISA); format: biochemical; details: CBP501 0.5, 5, 50 uM, 30° C., compared to cyclin-dependent kinases, PKA and PKC (FIG. 1)
T5 construct: ATM and ATR: Full length recombinant human, 293T cells; host or cells: 293T cells
Procedure: as §1, §2

[11] = molecular target: T6, CHK1 (Homo sapiens, UniProt O14757); assay: In vitro phosphorylation inhibition, CHK1 (ELISA); format: biochemical; details: CBP501 0.5, 5, 50 uM, 30° C., compared to cyclin-dependent kinases, PKA and PKC (FIG. 1)
T6 construct: Full length recombinant human from SF-9 cells for Chk1; host or cells: SF-9 cells
T6 sequence (O14757 1-476): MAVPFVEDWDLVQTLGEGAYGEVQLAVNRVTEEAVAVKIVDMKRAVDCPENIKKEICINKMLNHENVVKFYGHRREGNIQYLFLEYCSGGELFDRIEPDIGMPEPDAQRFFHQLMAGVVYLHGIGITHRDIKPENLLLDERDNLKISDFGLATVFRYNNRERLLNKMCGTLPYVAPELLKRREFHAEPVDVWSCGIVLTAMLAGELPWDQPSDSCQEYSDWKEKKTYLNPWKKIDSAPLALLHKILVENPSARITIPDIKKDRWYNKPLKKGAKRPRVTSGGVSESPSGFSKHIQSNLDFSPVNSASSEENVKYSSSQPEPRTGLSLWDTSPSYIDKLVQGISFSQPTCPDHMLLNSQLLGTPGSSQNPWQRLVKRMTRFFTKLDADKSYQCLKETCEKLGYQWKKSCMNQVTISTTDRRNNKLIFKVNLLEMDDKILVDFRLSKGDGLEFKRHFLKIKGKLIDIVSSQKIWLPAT
Procedure: as §1, §2

(d-Bpa)(d-Ser)(d-Trp)(d-Ser) (d-Phe2,3,4,5,6-F)(d-Cha)(d-Arg)(d-Arg)(d-Arg)(d-Gln)(d-Arg)(d-Arg) [CBP501]
growth of yeast AH109 on YAPD plate [1]: growth inhibition
inhibition of kinase activity (phosphorylation of substrate) [2]: strongly inhibited
inhibition of kinase activity (phosphorylation of substrate) [3]: strongly inhibited
MIC (minimul inhibitory concentration) [4]: 100 µg/mL
MIC (minimul inhibitory concentration) [5]: 100 µg/mL
MIC (minimul inhibitory concentration) [6]: 30 µg/mL
inhibition of kinase activity (phosphorylation of substrate) [7]: strongly inhibited
MIC (minimul inhibitory concentration) [8]: 1 µg/mL
inhibition of kinase activity (phosphorylation of substrate) [9]: strongly inhibited
inhibition of kinase activity (phosphorylation of substrate) [10]: strongly inhibited
inhibition of kinase activity (phosphorylation of substrate) [11]: strongly inhibited
